What was measured:
[1] = target: T1, Bile acid receptor (Homo sapiens, UniProt Q96RI1); assay: Agonist activity at FXR (unknown origin) transfected in human HepG2 cells incubated for 24 hrs by luciferase assay; format: cell-based
T1 sequence (Q96RI1 whole entry): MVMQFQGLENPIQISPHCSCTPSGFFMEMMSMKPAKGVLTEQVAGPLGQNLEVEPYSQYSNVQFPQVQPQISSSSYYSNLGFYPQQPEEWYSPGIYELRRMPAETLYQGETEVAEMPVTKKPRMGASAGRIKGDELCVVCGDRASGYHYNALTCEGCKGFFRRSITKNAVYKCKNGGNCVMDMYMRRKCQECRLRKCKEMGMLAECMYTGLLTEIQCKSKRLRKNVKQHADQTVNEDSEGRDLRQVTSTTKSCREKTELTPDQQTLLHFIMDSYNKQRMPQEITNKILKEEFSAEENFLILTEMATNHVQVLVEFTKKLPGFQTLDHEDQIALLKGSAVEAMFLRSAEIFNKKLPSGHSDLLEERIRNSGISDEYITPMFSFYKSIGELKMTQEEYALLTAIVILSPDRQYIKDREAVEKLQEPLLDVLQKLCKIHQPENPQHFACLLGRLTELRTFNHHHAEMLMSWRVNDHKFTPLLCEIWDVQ

[2] = target: T2, Androgen receptor (Homo sapiens, UniProt P10275); assay: Agonist activity at androgen receptor (unknown origin) transfected in green monkey CV-1 cells co-transfected with NHR responsive luciferase reporter incubated for 18 hrs by luciferase assay; format: cell-based
T2 sequence (P10275 whole entry): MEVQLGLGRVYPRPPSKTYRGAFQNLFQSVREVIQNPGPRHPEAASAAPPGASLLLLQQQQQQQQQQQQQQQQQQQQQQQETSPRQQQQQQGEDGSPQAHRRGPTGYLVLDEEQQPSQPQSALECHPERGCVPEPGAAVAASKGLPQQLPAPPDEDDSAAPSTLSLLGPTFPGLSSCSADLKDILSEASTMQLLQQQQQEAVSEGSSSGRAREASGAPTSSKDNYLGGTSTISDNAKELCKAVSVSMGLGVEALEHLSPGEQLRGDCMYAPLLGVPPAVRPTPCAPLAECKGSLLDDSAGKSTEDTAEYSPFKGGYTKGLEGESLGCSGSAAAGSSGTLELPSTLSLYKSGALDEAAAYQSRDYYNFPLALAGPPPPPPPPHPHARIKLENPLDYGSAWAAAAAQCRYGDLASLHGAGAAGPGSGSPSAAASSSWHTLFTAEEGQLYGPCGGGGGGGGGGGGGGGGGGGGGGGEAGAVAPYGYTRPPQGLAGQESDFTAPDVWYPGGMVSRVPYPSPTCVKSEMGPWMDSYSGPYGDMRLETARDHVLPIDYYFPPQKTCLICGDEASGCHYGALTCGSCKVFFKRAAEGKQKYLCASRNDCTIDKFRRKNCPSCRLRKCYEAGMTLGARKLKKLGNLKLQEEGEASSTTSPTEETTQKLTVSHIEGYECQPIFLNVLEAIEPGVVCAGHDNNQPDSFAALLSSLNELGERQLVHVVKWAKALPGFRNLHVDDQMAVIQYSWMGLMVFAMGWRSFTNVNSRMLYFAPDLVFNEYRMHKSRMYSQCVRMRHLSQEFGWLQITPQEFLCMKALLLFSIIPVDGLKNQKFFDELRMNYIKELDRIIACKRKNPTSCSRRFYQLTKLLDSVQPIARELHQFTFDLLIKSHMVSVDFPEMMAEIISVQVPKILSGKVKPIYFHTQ

[3] = target: T3, Retinoic acid receptor alpha (Homo sapiens, UniProt P10276); assay: Agonist activity at RARalpha (unknown origin) transfected in green monkey CV-1 cells co-transfected with NHR responsive luciferase reporter incubated for 18 hrs by luciferase assay; format: cell-based
T3 sequence (P10276 whole entry): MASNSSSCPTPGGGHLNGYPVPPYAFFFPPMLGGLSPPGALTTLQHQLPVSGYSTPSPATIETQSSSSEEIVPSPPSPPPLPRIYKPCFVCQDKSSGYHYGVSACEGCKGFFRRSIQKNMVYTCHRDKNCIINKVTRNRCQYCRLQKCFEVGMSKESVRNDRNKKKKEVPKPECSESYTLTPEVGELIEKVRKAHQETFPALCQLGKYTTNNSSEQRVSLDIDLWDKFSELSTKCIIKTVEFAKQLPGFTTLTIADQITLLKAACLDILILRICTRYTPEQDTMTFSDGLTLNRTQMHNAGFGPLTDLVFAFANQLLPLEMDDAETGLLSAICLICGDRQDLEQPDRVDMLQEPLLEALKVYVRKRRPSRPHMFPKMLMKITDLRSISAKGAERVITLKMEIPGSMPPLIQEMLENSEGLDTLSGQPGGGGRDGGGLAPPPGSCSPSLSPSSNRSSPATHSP

[4] = target: T4, Progesterone receptor (Homo sapiens, UniProt P06401); assay: Agonist activity at progesterone receptor (unknown origin) transfected in green monkey CV-1 cells co-transfected with NHR responsive luciferase reporter incubated for 18 hrs by luciferase assay; format: cell-based
T4 sequence (P06401 whole entry): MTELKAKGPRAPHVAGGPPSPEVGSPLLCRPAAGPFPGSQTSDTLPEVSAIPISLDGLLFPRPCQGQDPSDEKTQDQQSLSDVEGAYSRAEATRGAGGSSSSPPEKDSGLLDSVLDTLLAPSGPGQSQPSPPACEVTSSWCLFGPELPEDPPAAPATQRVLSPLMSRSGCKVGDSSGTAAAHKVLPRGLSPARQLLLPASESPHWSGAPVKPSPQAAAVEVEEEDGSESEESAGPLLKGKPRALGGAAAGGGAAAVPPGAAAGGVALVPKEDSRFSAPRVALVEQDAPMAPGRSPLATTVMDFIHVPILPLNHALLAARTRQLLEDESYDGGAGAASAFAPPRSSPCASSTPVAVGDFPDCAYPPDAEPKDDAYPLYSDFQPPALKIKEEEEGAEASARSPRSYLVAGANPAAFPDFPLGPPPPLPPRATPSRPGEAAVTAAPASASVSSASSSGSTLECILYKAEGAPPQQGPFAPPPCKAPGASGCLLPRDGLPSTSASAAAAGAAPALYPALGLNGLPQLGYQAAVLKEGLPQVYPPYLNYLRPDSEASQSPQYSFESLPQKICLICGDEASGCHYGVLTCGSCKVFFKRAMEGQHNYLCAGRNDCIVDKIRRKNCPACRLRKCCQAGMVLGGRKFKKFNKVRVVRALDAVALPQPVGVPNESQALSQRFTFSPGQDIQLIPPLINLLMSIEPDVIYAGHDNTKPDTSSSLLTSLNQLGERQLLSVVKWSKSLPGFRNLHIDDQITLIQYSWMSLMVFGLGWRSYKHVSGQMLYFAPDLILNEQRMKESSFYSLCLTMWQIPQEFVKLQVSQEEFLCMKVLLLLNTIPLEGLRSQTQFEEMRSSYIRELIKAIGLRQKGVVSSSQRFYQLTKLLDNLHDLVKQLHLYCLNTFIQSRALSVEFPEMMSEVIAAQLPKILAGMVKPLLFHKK

[5] = target: T1, Bile acid receptor; assay: Agonist activity at FXR-LBD (unknown origin) incubated for 3 hrs in presence of fluorescein-coactivator peptide by TR-FRET analysis

Molecule `O=C(O)c1ccc(-c2ccc(OCc3c(-c4c(Cl)cccc4Cl)noc3C3CC3)cc2)cc1` has an EC50 [1] of 132 nM, an EC50 [2] greater than 10 µM and an EC50 [3] greater than 10 µM. The EC50 [4] was greater than 10 µM and the EC50 [5] was 52 nM.

— ChEMBL document CHEMBL6114960, “Discovery of First-in-Class FXR and HSD17B13 Dual Modulator for the Treatment of Metabolic Dysfunction-Associated Fatty Liver Disease” (J Med Chem, 2025)
